Measured values as given in US20080119483A1, “COMPOSITIONS AND METHODS FOR INHIBITING PROTOZOAN GROWTH” (priority 2006, published 2008).
Where “and” joins values, the source holds several entries; their conditions need not be identical. Equal entries are not always repeated. Entries after “also recorded” stand apart in the source; their conditions may differ. Where two headings read alike, the source gives them in different places. Starred links: 1 amine or outer side, 2 acyl side, 3 side chain; linkers in the order of their positions; H or OH if unused. Non-standard residues stand in square brackets, D forms with d. Residues, ends and D or L forms follow the SMILES beside them. X1 = CC[C@@H](C)[C@@H](O[*:1])C(=O)[*:2]; NMeVal(β-OH) = CN[C@H](C(=O)O)C(C)(C)O; NMeF = CN[C@@H](Cc1ccccc1)C(=O)O; aIle = CC[C@@H](C)[C@H](N)C(=O)O; NMeV = CN[C@H](C(=O)O)C(C)C

Key:
[1] = system: L. major LV39 WT promastigotes; experiment: microbe, parasite or virus in culture; format: cell-based, Leishmania major
Procedure: (§1) Log phase L. major LV39 WT and spt2 promastigotes were inoculated at 1.0×10^5 cells/ml and culture densities were determined 48 hours later.
(§2) Wild type (WT) L. major LV39 clone 5 (Rho/SU/59/P), FV1 (MOHM/IL/80/Friedlin virulent clone 1), spt2^− (Δspt2::HYG/Dspt2::PAC), ads1^− (Δads1::HYG/Dads1::SAT), and spt2^−/+SPT2 (Δspt2::HYG/Dspt2::PAC/+pXG-SPT2) cells were grown in M199 with 10% FBS and supplements as described [Zhang, et al., 2003; Kapler, et al., 1990]. For growth inhibition assays, promastigotes were inoculated at 1.0×10^5 cells/ml (in T25 flasks, 5 ml of medium per flask) in various concentrations of drugs. All cultures contained equivalent amount of DMSO or methanol (0.1% or less, from drug stocks). After 48 or 96 (for ads1^− only) hours, culture densities were determined using a Coulter counter (Z1, Beckman) and effects of drugs on growth were assessed in relative to cultures grown in the absence of drugs.
A classical isobologram was constructed by plotting EC50s of drugs either alone or in combination.

[2] = system: L. major ads1^− promastigotes; experiment: Growth inhibition assay, EPL-null ads1^− mutant versus FV1 WT; format: cell-based, Leishmania major; conditions: 96 hours for ads1^−
Procedure: as §2

[3] = system: L. major spt2^− promastigotes; experiment: microbe, parasite or virus in culture; format: cell-based, Leishmania major
Procedure: as §1, §2

[4] = system: Leishmania major LV39 clone 5 promastigotes; experiment: Microtiter screen for synergy drugs (cellular ATP, luciferase based); format: cell-based; conditions: follow-up of class d hits
Description: Following inoculation, parasites were allowed to grow until late logarithmic phase. […] Parasites were inoculated without any drug, singly with the two prototypic synergistic drugs myriocin or itraconazole, or both drugs, at varying concentrations.

[5] = system: L. major LV39 WT promastigotes; experiment: Composition of free sterols by GC/MS, WT promastigotes; format: cell-based, Leishmania major; conditions: for 5-dehydroepisterol (%) / 14-methylfecosterol (%) / Cholesterol (%) / Episterol (%) / Ergosterol (%) / Total sterols/cell: 48 hours
Procedure: (§3) Log phase L. major LV39 WT and spt2^− promastigotes were grown in the presence or absence of ITZ or CLT. Culture densities were determined 48 hours later and total lipids were extracted and the composition of free sterols was determined by GC/MS as described in Materials and Methods. ND: not detectable. Each experiment was repeated at least 3 times and results from one representative set were shown.
(§4) Here WT and spt2^− parasites were grown in various concentrations of ITZ (0.001 nM to 1 μM) or CLT (10 nM to 5 μM). Effects of ITZ and CLT on growth, sterol composition and DRM were analyzed after 48 hours. Basically, culture densities were determined using a particle counter and drugs' effects on growth were assessed in comparison to control cells (no drug); sterol lipids were extracted and analyzed by GC/MS and the percentage of 14-methylfecosterol (among all detectable sterol lipids) was used to reflect changes in sterol composition (see Table 2). DRMs were also isolated and the percentage of GP63 that were insoluble at 4° C. was used as an indicator for the integrity of DRM (see FIG. 2). Two to four independent experiments were performed and the averaged results were plotted in FIG. 3.
(§5) Total lipids were extracted using the Folch's method [Folch, et al., 1957]. Briefly, promastigotes were harvested by centrifugation and washed once with PBS. Pellets were resuspended in chloroform:methanol (2:1) at 1.0×10^8 cells/ml with the addition of cholesta-3,5-diene (Sigma-Aldrich, FW 368.7) at 0.5 mg/10^8 cells (6.6×10^7/cell). After vortexing for 30 s, cell debris was removed by centrifugation (1000 g for 10 min) and samples were washed with 0.2 volume of 0.9% NaCl. After centrifugation, supernatants were removed and the organic phase solutions were dried under a stream of nitrogen. Samples were then dissolved in chloroform:methanol (1:2) at 1.0×10^9 cells/ml.
(§6) Electron impact gas chromatography/mass spectrometry (GC/MS) analyses of sterol lipids were performed on a Finnigan (San Jose, Calif.) SSQ-7000 single-stage quadrupole mass spectrometer with a Varian (Walnut Creek, Calif.) 3400 GC, which is controlled by Finnigan ICIS software operated on a DEC alpha station. The extracts in solution […] were injected in a splitless mode and analyzed by GC on a Restek (Bellefonte, Pa.) RTX-5 column (15 m, 0.33 mm id, […]). The initial temperature of GC was set at 80° C. for 1 min, increased to 220° C. at a rate of 50° C./min, and then raised to a final temperature of 280° C. at a rate of 10° C./min. The temperatures of the injector, transfer line of the GC column, and of the ion-source were set at 280° C., 280° C., and 240° C., respectively. The full scan mass spectra (50 to 500 Dalton) were acquired at a rate of 1 scan/0.25 Sec.

[6] = system: L. major spt2^− promastigotes; experiment: Composition of free sterols by GC/MS, spt2^− promastigotes; format: cell-based, Leishmania major; conditions: 48 hours
Procedure: as §3, §4, §5, §6

[7] = Leishmania major, 48 h, LV39 WT promastigotes, 48 hours; read-out: EC50 in WT
[8] = Leishmania major, 48 h, read-out: EC50 in spt2^−
[9] = LV39 WT promastigotes, 48 hours; read-out: EC50 in WT
[10] = spt2^− promastigotes, 48 hours; read-out: EC50 in spt2^−

CCCCCCCCCCCCCCCCCCOCC(COP(=O)([O-])OCC[N+](C)(C)C)OC (racemic) [Edelfosine, 1-O-octadecyl-2-O-methyl-rac-glycero-3-phosphocholine]
EC50 [1, 7]: 1500 nM
Sensitivity of ads1^− mutant in comparison to FV1 WT [2]: very similar EC50s; also recorded: little or no selectivity
EC50 [3, 8]: 5400 nM
EC50 (WT)/EC50 (spt2^−) ([3]; ratio): 0.28
Selectivity against spt2^− parasites (in words) ([3]; spt2^− versus LV39 WT): failed to show strong selectivity

C[C@@H]1[C@H](O)[C@@H](C)/C=C/C=C/C=C/C=C/C=C/C=C/C=C/[C@H](O[C@@H]2O[C@H](C)[C@@H](O)[C@H](N)[C@@H]2O)C[C@@H]2O[C@](O)(C[C@@H](O)C[C@@H](O)[C@H](O)CC[C@@H](O)C[C@@H](O)CC(=O)O[C@H]1C)C[C@H](O)[C@H]2C(=O)O [Amphotericin B]
EC50 [1, 9]: 41 nM
EC50 (WT)/EC50 (spt2^−) ([3]; ratio): 1.9
EC50 [3, 10]: 22 nM
Selectivity against spt2^− parasites (in words) ([3]; spt2^− versus LV39 WT): nearly equally well

CCn1nc(C(=O)O)c(=O)c2cc3c(cc21)OCO3 [cinoxacin]
Confirmation of synergy with itraconazole [4]: not confirmed

CC[C@@H](C)[C@@H]1NC(=O)[C@@H]2CCCN2C(=O)[C@H](Cc2ccccc2)N(C)C(=O)[C@H](Cc2ccccc2)NC(=O)[C@H](C(C)C)N(C)C(=O)[C@@H]([C@H](C)CC)OC(=O)[C@H](C(C)(C)O)N(C)C(=O)[C@H](CC(C)C)NC(=O)[C@H](C(C)C)N(C)C1=O [Aureobasidin A] (cyclo(F[NMeF]P[aIle][NMeV]L[NMeVal(β-OH)][X1][NMeV]))
EC50 [1, 9]: 560 nM
Sensitivity of ads1^− mutant in comparison to FV1 WT [2]: very similar EC50s
EC50 (WT)/EC50 (spt2^−) ([3]; ratio): 0.90
EC50 [3, 10]: 620 nM

Clc1ccccc1C(c1ccccc1)(c1ccccc1)n1ccnc1 [Clotrimazole]
5-dehydroepisterol (%) ([5]; WT + 0.2 μM CLT): 63.7%
14-methylfecosterol (%) ([5]; WT + 0.2 μM CLT): 9.9%
Cholesterol (%) ([5]; WT + 0.2 μM CLT): 4.5%
Episterol (%) ([5]; WT + 0.2 μM CLT): 17.5%
Ergosterol (%) ([5]; WT + 0.2 μM CLT): 4.4%
Total sterols/cell ([5]; WT + 0.2 μM CLT): 3.3 × 10^8 /cell
5-dehydroepisterol (%) ([5]; WT + 0.5 μM CLT): 42.0%
14-methylfecosterol (%) ([5]; WT + 0.5 μM CLT): 47.1%
Cholesterol (%) ([5]; WT + 0.5 μM CLT): 3.9%
Episterol (%) ([5]; WT + 0.5 μM CLT): 5.1%
Ergosterol (%) ([5]; WT + 0.5 μM CLT): 1.9%
Total sterols/cell ([5]; WT + 0.5 μM CLT): 2.2 × 10^8 /cell
5-dehydroepisterol (%) ([6]; spt2^− + 0.2 μM CLT): 44.1%
14-methylfecosterol (%) ([6]; spt2^− + 0.2 μM CLT): 21.5%
Cholesterol (%) ([6]; spt2^− + 0.2 μM CLT): 20.2%
Episterol (%) ([6]; spt2^− + 0.2 μM CLT): 10.7%
Ergosterol (%) ([6]; spt2^− + 0.2 μM CLT): 3.5%
Total sterols/cell ([6]; spt2^− + 0.2 μM CLT): 3.5 × 10^8 /cell
5-dehydroepisterol (%) ([6]; spt2^− + 0.5 μM CLT): 23.9%
14-methylfecosterol (%) ([6]; spt2^− + 0.5 μM CLT): 50.3%
Cholesterol (%) ([6]; spt2^− + 0.5 μM CLT): 21.1%
Episterol (%) ([6]; spt2^− + 0.5 μM CLT): 3.5%
Ergosterol (%) ([6]; spt2^− + 0.5 μM CLT): 1.2%
Total sterols/cell ([6]; spt2^− + 0.5 μM CLT): 3.1 × 10^8 /cell
CLT concentration needed to achieve any noticeable effects on growth, sterol composition, or DRMs [1]: > 100 nM
Growth (%) [1]: 76.9% and 78.7%
Growth (%) ([3]; spt2^− + 0.2 μM CLT, 48 hours): 93.8%
Growth (%) ([3]; spt2^− + 0.5 μM CLT, 48 hours): 62.8%

Mevinolin
EC50 ([1]; read-out: EC50 in WT; LV39 WT promastigotes, 48 hours): 15000 nM
EC50 (WT)/EC50 (spt2^−) ([3]; ratio): 1.0
EC50 ([3]; read-out: EC50 in spt2^−; spt2^− promastigotes, 48 hours): 15000 nM
Selectivity against spt2^− parasites (in words) ([3]; spt2^− versus LV39 WT): did not cause the extreme hypersensitivity

CC(=O)N1CCN(c2ccc(OCC3COC(Cn4ccnc4)(c4ccc(Cl)cc4Cl)O3)cc2)CC1 (stereo not drawn) [Ketoconazole]
Effect on sterol composition ([5]; LV39 WT, 5-10 nM): completely altered the sterol composition
Effect on growth [1]: only minor effect on growth
EC50 ([1]; Leishmania major, 48 h, read-out: EC50 in WT): ~3100 nM
Sensitivity of ads1^− mutant in comparison to FV1 WT [2]: hypersensitive
EC50 [3, 8]: 10 nM
EC50 (WT)/EC50 (spt2^−) ([3]; ratio): 310
Effect of supplementation of ethanolamine or choline on the sensitivity in spt2^− parasites ([3]; spt2^− with EtN or choline): almost no effect

CC(C)[C@@H]1NC(=O)[C@H](Cc2ccccc2)NC(=O)[C@@H]2NC(=O)[C@H](Cc3ccccc3)NC(=O)[C@@H]3CCCN3C(=O)CNC(=O)[C@H](Cc3ccccc3)NC(=O)[C@@H]3CNCCCC[C@@H](C(=O)O)NC(=O)[C@@H]4NC(=O)[C@H](CC(N)=O)NC(=O)CNC(=O)[C@H]([C@@H](O)C(=O)O)NC(=O)[C@H](CSC[C@@H](NC(=O)[C@H](CCC(N)=O)NC(=O)[C@H](CCCNC(=N)N)NC(=O)[C@@H](N)CS[C@H]4C)C(=O)N[C@@H](CS[C@H]2C)C(=O)N3)NC1=O [Cinnamycin]
EC50 [1, 9]: 3100 nM
EC50 (WT)/EC50 (spt2^−) ([3]; ratio): 1.0
EC50 [3, 10]: 3100 nM
Selectivity against spt2^− parasites (in words) ([3]; spt2^− versus LV39 WT): nearly equally well

C=C(C)C(=O)C(=CC(=O)O)OC [penicillic acid]
Confirmation of synergy with itraconazole [4]: confirmed
Synergy effect with itraconazole [4]: ~2 fold

OC1(c2ccc(-c3ccccc3)cc2)CN2CCC1CC2 (stereo not drawn) [3-(Biphenyl-4-yl)-3-hydroxyquinuclidine]
EC50 [1, 7]: 1580 nM
EC50 [3, 8]: 1120 nM
EC50 (WT)/EC50 (spt2^−) ([3]; ratio): 1.4
Selectivity against spt2^− parasites (in words) ([3]; spt2^− versus LV39 WT): did not cause the extreme hypersensitivity
